These are literature values, as cited in patent US20070250270A1, “Cellular predictive models for toxicities” (Cytokinetics, Inc., priority 2006, published 2007).

Starred links: 1 amine or outer side, 2 acyl side, 3 side chain; linkers in the order of their positions; H or OH if unused. Positions of bridges follow the written chain, without caps; N, C: chain ends. Non-standard residues stand in square brackets, D forms with d. Residues, ends and D or L forms follow the SMILES beside them. Trp(2-yl) = O=C([C@H](Cc1c([*:3])[nH]c2ccccc12)N[*:1])[*:2]; Leu(4R-OH,5-OH) = C[C@](O)(CO)C[C@H](N)C(=O)O; cisHyp = O=C(O)[C@@H]1C[C@H](O)CN1

One series relates to bile flow. Conditions: rats.

On to `C=C1[C@@H](C)[C@H]2[C@H](Cc3ccccc3)NC(=O)[C@]23OC(=O)/C=C/[C@H](O)CCC[C@@H](C)C/C=C/[C@H]3[C@@H]1O` [cytochalasin B], for which, in the series on bile flow, the “effect on bile flow, resulting in cholestatic injury” value was “prompt arrest of bile flow”.
`C[C@@H]1NC(=O)[C@H](C[C@@](C)(O)CO)NC(=O)[C@@H]2Cc3c([nH]c4ccccc34)SC[C@H](NC(=O)[C@@H]([C@H](C)O)NC1=O)C(=O)N1C[C@@H](O)C[C@H]1C(=O)N[C@@H](C)C(=O)N2` [phalloidin] (cyclo(A[dT]C[cisHyp]A[Trp(2-yl)][Leu(4R-OH,5-OH)]); thioether 3-6): the “effect on filamentous F actin around canaliculi and tight junctions” value in the series on filamentous F actin was “increase in filamentous F actin around canaliculi and tight junctions”.
